In PMC6797481, “Identification of an allosteric binding site on the human glycine transporter, GlyT2, for bioactive lipid analgesics” (eLife, 2019):
Substitutions are numbered along the chain they refer to.

Legend:
GlyT2 P561S mutant = molecular target: T1, GlyT2 P561S mutant (Homo sapiens, UniProt Q9Y345, P561S); assay: Glycine transport currents, two electrode voltage clamp, oocytes expressing GlyT2 P561S; assay type: cell-based; details: for IC50 / % Max. inhibition: GlyT2 P561S; for % Max. inhibition: mean ± SEM
T1 construct: expressed in transfected cells; host or cells: Xenopus laevis oocytes (cRNA injection)
T1 sequence (Q9Y345 1-797 P561S): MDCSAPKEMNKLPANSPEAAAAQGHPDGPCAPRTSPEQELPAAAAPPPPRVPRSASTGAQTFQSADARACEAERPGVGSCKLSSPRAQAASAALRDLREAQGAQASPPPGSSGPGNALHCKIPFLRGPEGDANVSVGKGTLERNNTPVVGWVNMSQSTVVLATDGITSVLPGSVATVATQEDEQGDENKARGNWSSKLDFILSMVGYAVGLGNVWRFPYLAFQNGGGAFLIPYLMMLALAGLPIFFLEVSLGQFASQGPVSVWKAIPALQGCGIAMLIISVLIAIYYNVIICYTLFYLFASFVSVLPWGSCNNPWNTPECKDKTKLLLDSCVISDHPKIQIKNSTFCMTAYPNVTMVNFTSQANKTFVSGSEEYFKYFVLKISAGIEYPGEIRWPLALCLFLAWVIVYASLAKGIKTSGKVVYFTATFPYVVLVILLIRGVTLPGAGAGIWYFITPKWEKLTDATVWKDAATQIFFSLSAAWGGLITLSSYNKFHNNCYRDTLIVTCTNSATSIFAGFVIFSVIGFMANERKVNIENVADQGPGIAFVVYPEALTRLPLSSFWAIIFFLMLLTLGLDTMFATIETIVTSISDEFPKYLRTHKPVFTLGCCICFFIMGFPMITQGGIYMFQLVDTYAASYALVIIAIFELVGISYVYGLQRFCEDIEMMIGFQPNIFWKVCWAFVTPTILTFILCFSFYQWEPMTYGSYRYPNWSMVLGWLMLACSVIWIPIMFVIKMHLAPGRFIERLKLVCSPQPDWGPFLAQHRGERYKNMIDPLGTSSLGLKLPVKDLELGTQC
Description: (§1) Glycine was first applied to establish maximal transport current.
(§2) Compounds were tested for inhibition of glycine transport on Xenopus laevis oocytes expressing mutant GlyT1 and GlyT2 transporters. n values are in brackets, with measurements taken from at least 2 batches of oocytes.

GlyT2 W563L mutant = molecular target: T2, GlyT2 W563L mutant (Homo sapiens, UniProt Q9Y345, W563L); assay: Glycine transport currents, two electrode voltage clamp, oocytes expressing GlyT2 W563L; assay type: cell-based; details: for % Max. inhibition: mean ± SEM
T2 construct: expressed in transfected cells; host or cells: Xenopus laevis oocytes (cRNA injection)
T2 sequence (Q9Y345 1-797 W563L): T1 sequence (Q9Y345 1-797 P561S) with S561P, W563L
Description: as §1, §2

GlyT2 L569F mutant = molecular target: T3, GlyT2 L569F mutant (Homo sapiens, UniProt Q9Y345, L569F); assay: Glycine transport currents, two electrode voltage clamp, oocytes expressing GlyT2 L569F; assay type: cell-based; details: for % Max. inhibition: mean ± SEM
T3 construct: expressed in transfected cells; host or cells: Xenopus laevis oocytes (cRNA injection)
T3 sequence (Q9Y345 1-797 L569F): T1 sequence (Q9Y345 1-797 P561S) with S561P, L569F
Description: as §1, §2

GlyT1 WT = tested on: GlyT1 WT; parameters: method as in earlier work; details: previously published; cited from earlier work
[1] = GlyT2 W563L, greater than maximum concentration applied (footnote a)

Compound	IC50 (GlyT2 L569F mutant; GlyT2 L569F, mean (95% CI)) [µM]	% Max. inhibition (GlyT2 L569F mutant; GlyT2 L569F)	IC50 (GlyT1 WT) [µM]	IC50 (GlyT2 P561S mutant; mean (95% CI)) [µM]	% Max. inhibition (GlyT2 P561S mutant)	IC50 (GlyT2 W563L mutant; GlyT2 W563L, mean (95% CI)) [µM]	% Max. inhibition (GlyT2 W563L mutant; GlyT2 W563L)	IC50 (GlyT2 W563L mutant; [1]) [µM]	further results
NCC(=O)O [Glycine]									EC50 (GlyT2 P561S mutant; glycine transport, GlyT2 P561S (TM8)): 15.5 ± 4.1 µM; EC50 (GlyT2 W563L mutant; glycine transport, GlyT2 W563L (TM8)): 4.9 ± 0.8 µM; EC50 (GlyT2 L569F mutant; glycine transport, GlyT2 L569F (TM8)): 7 ± 0.6 µM
CCCCC/C=C\C/C=C\C/C=C\C/C=C\CCCC(=O)NCC(=O)O [N-arachidonyl Glycine, reference compound]	3.59	63.7 ± 19.0 (p=0.9990) %	> 10						
CCCCCCCC/C=C\CCCCCCCC(=O)NCC(=O)O [N-oleoyl Glycine, reference compound]		32.5 ± 3.6 (p=0.0005) %	> 10	0.564	62.1 ± 4.8 (p=0.9242) %	0.755	46.6 ± 4.0 (p=0.0449) %		IC50 (GlyT2 L569F mutant; GlyT2 L569F, greater than maximum concentration applied (footnote a)): > 10 µM
CCCCCCCC/C=C\CCCCCCCC(=O)O[C@H](CC(=O)[O-])C[N+](C)(C)C [oleoyl L-Carnitine, reference compound]	1.2		> 10		31.6 ± 5.2 (p=0.0001) %		34.7 ± 3.2 (p=0.0001) %	> 3	IC50 (GlyT2 P561S mutant; greater than maximum concentration applied (footnote a)): > 3 µM; % Max. inhibition (% inhibition at the highest concentration of inhibitor used) (GlyT2 L569F mutant; GlyT2 L569F, footnote b): 45.5 ± 7.0^b (p=0.0038) %
CCCCCCCC/C=C\CCCCCCCC(=O)N[C@@H](CC(=O)O)C(=O)O [oleoyl l-Aspartate]			> 10	2.54	58.2 ± 4.7 (p=0.0954) %	1.16	74.9 ± 7.5 (p=0.9965) %		
CCCCCCCC/C=C\CCCCCCCC(=O)N[C@@H](CCCCN)C(=O)O [oleoyl l-Lysine]	0.301	76.8 ± 5.8 (p=0.4504) %	> 3	0.0692	71.5 ± 4.8 (p=0.0758) %	0.175	73.5 ± 3.3 (p=0.1479) %		
CCCCCCCC/C=C\CCCCCCCC(=O)N[C@@H](Cc1c[nH]c2ccccc12)C(=O)O [oleoyl l-Tryptophan]			> 10	0.318	61.4 ± 4.2 (p=0.0001) %		42.9 ± 2.6 (p=0.0001) %	> 3	
CCCCCCCC/C=C\CCCCCCCC(=O)N[C@H](C(=O)O)C(C)C [oleoyl l-Valine]			> 30	0.753	94.5 ± 4.7 (p=0.9462) %	7.51			% Max. inhibition (% inhibition at the highest concentration of inhibitor used) (GlyT2 W563L mutant; GlyT2 W563L, footnote b): 56.3 ± 9.1^b (p=0.5737) %
oleoyl d-Lysine			> 3	0.558	76.7 ± 8.1 (p=0.4299) %		42.1 ± 7.7 (p=0.0017) %	> 3	
